According to paper PMC8224453, “A New PqsR Inverse Agonist Potentiates Tobramycin Efficacy to Eradicate Pseudomonas aeruginosa Biofilms” (Advanced Science, 2021):
“And” between values parts separate entries of the source, which are not always exact repeats. Equal values may be shown once. Read-outs that look alike come from different tables or passages of the source.

What was measured:
[1] = test system: eDNA production in PA biofilm; assay: Inhibition of eDNA production in biofilm; format: cell-based; conditions: Pseudomonas aeruginosa
[2] = Metabolic stability, mouse liver S9; format: in vitro ADME
Procedure: For the evaluation of combined phase I and phase II metabolic stability, the compound (1 μM) was incubated with 1 mg/mL pooled liver S9 fraction from the respective species (Xenotech), […]
2 mM NADPH, 1 mM UDPGA, 10 mM MgCl2, 5 mM GSH and 0.1 mM PAPS at 37 °C for […]
0, 5, 15, 30 or 60 min. The metabolic stability of Testosterone (1 μM) and verapamil (1 μM) […]
were determined in parallel to confirm the enzymatic activity of the S9 fraction. The […]
incubation was stopped by precipitation of S9 enzymes with 2 volumes of cold acetonitrile […]
containing internal standard (750 nM Diphenhydramine). Samples were stored on ice for 10 […]
min and precipitated protein was removed by centrifugation (10 min, 4 °C, 17,000 g).
Concentration of the remaining test compound at the different time points was analyzed by […]
LC-MS/MS (TSQ Quantum Access MAX, Thermo Fisher, Dreieich, Germany) and used to […]
determine half-life (t1/2). Stability of compound 4 in further S9 fractions are summarized in […]
Table S4. Metabolic stability studies in various S9 fractions. […]

[3] = Metabolic stability half-life (matrix not given); format: in vitro ADME; conditions: matrix not stated; read-out: metabolic stability half-life t 1/2
Procedure: First, we evaluated the most promising compounds considering in vitro pharmacokinetic properties such as solubility and metabolic stability. […] Compounds 4 and 19 were moderately stable with half‐lives of 10 and 19 min, respectively.

[4] = Cytotoxicity assay in HepG2; format: cell-based; conditions: human, HepG2 cells, read-out: Cytotoxicity, viable cells
Procedure: Hep G2 or HEK293 cells (2 × 10^5 cells per well) were seeded in 24-well, flat-bottomed plates. Culturing of cells, incubations, and OD measurements were performed as described previously with slight modifications.[8] Twenty-four hours after seeding the cells, the incubation was started by the addition of test compound in a final DMSO concentration of
1%. […] At least two independent measurements were performed for each compound.

[5] = test system: Ca2+ channel (L, dihydropyridine site); assay: CEREP off-target panel, antagonist radioligand; format: binding; conditions: @10µM
Procedure: (§1) 5. In vitro ADME/T and Safety Pharmacology
(§2) 5.1. CEREP off-targets assay
(§3) Experiments towards possible off-target effects were conducted following Eurofins Discovery protocol. Detailed information about the assays can be found in: https://www.eurofinsdiscoveryservices.com/catalogmanagement/viewitem/SafetyScreen44- […]
(§4) Table S3. Possible CEREP off-targets. entry off-target QSI 4 QSI 17 Assay
(§5) (%binding (%binding method
(§6) (1 picture or pasted object on this page, not shown here)

Dopamine transporter = target: T1, Dopamine transporter (Homo sapiens, UniProt Q01959); assay: CEREP off-target panel, antagonist radioligand; format: binding; conditions: @10µM
T1 construct: Eurofins Discovery (SafetyScreen44 Panel, Cerep) P270
Procedure: as §1, §2, §3, §4, §5, §6

Na+ channel (site 2) = assay: CEREP off-target panel, antagonist radioligand; format: binding; conditions: @10µM
Procedure: as §1, §2, §3, §4, §5, §6

[6] = target: T2, Norepinephrine transporter (Homo sapiens, UniProt P23975); assay: CEREP off-target panel, antagonist radioligand; format: binding; conditions: @10µM
T2 construct: Eurofins Discovery (SafetyScreen44 Panel, Cerep) P270
Procedure: as §1, §2, §3, §4, §5, §6

α1A receptor = target: T3, α1A receptor (Homo sapiens, UniProt P35348); assay: CEREP off-target panel, antagonist radioligand; format: binding; conditions: @10µM
T3 construct: Eurofins Discovery (SafetyScreen44 Panel, Cerep) P270
Procedure: as §1, §2, §3, §4, §5, §6

β2 receptor = target: T4, β2 receptor (Homo sapiens, UniProt P07550); assay: CEREP off-target panel, antagonist radioligand; format: binding; conditions: @10µM
T4 construct: Eurofins Discovery (SafetyScreen44 Panel, Cerep) P270
Procedure: as §1, §2, §3, §4, §5, §6

5-HT2A = target: T5, 5-HT2A (Homo sapiens, UniProt P28223); assay: CEREP off-target panel, agonist radioligand; format: binding; conditions: @10µM
T5 construct: Eurofins Discovery (SafetyScreen44 Panel, Cerep) P270
Procedure: as §1, §2, §3, §4, §5, §6

5-HT2B = target: T6, 5-HT2B (Homo sapiens, UniProt P41595); assay: CEREP off-target panel, agonist radioligand; format: binding; conditions: @10µM
T6 construct: Eurofins Discovery (SafetyScreen44 Panel, Cerep) P270
Procedure: as §1, §2, §3, §4, §5, §6

AR = assay: CEREP off-target panel, agonist radioligand; format: binding; conditions: @10µM
Procedure: as §1, §2, §3, §4, §5, §6

PA14 wt biofilm = assay: Minimum biofilm eradicating concentration (MBEC) assay; format: cell-based, Pseudomonas aeruginosa
Source text: page 21: wild type (PA14 wt) was purchased from DSMZ, the German Collection of Microorganism and Cell Cultures GmbH (PA14 = DSMZ19882) and cultured in minimal proteose peptone glucose ammonium salt (PPGAS) medium. […] KCl, 19 g/L Tris-HCl, 10 g/L peptone, 5 g/L glucose and 0.1 g/L MgSO4∙7H2O. The pH value […] Agar solution was […] resulting solution was sterilized before being plated. The minimum inhibitory concentration (IC) of drug-free SqNPs, compound 4 prepared either in dimethyl sulfoxide (DMSO) or loaded in SqNPs, free Tob, Tob-loaded SqNPs, and Tob and compound 4 co-loaded SqNPs against planktonic PA14 wt were determined by standard microbroth dilution assays in 96-well plates. PA14 wt suspension was prepared from mid-log cultures in PPGAS medium and […] PBS served as a control. […] The MBECs of free Tob, Tob-loaded SqNPs, free Tob plus free compound 4 prepared in DMSO, and Tob and compound (4) co-loaded SqNPs were determined by the MBEC assay as reported in previous study.[2,7] […] The biofilm-eradicating efficacy was assessed according to viable bacterial load determined using dilution in PBS/0.05% Tween20 and plating on agar S20 page 22: plates to count CFU after overnight incubation at […]. […] Using GraphPad Prism 8.4.2, the AUC was calculated for each condition. […] After a 24h treatment, efficacy was assessed by determination of colony-forming units per millilitre (CFU/mL). […]

[7] = pooled mouse liver S9 fraction, Table 2, read-out: Metabolic stability t 1/2 S9 mouse

T4 sequence (P07550 whole entry): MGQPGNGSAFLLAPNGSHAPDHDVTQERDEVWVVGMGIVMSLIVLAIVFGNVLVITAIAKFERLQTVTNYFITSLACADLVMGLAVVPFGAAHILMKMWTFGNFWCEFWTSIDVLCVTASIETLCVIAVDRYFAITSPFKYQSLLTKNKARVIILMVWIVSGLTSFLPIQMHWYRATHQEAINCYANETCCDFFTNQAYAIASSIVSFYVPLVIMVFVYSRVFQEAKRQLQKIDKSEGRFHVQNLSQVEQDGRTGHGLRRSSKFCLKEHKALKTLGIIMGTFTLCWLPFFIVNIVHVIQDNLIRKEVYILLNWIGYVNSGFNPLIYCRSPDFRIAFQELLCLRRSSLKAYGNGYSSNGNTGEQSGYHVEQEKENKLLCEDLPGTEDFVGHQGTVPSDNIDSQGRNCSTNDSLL
T2 sequence (P23975 whole entry): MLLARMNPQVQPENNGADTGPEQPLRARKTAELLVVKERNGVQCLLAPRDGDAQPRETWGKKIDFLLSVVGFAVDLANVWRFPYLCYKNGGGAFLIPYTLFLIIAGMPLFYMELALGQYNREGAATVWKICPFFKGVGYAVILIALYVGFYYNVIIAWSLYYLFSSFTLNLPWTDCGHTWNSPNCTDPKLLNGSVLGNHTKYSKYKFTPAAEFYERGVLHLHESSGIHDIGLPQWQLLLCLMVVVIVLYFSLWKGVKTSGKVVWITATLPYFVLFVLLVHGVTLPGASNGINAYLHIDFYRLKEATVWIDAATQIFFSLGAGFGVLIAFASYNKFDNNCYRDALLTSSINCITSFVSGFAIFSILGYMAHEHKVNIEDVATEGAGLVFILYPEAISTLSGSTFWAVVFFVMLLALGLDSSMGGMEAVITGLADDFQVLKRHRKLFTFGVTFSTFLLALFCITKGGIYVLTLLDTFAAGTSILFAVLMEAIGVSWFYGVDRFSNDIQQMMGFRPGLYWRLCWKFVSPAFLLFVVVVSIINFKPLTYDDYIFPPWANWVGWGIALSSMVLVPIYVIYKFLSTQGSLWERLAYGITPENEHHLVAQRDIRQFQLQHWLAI
T5 sequence (P28223 whole entry): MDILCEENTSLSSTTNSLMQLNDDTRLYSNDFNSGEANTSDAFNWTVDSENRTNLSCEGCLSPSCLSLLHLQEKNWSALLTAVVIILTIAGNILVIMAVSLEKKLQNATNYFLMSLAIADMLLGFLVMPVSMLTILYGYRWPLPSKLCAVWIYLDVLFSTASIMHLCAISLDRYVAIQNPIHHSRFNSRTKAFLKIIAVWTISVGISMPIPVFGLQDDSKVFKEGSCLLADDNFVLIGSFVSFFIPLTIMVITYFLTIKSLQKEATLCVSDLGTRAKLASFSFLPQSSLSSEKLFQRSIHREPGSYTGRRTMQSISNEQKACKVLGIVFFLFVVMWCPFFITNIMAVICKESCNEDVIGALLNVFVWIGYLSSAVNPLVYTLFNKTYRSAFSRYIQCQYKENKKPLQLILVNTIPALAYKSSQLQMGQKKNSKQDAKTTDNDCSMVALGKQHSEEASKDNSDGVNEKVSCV
T3 sequence (P35348 whole entry): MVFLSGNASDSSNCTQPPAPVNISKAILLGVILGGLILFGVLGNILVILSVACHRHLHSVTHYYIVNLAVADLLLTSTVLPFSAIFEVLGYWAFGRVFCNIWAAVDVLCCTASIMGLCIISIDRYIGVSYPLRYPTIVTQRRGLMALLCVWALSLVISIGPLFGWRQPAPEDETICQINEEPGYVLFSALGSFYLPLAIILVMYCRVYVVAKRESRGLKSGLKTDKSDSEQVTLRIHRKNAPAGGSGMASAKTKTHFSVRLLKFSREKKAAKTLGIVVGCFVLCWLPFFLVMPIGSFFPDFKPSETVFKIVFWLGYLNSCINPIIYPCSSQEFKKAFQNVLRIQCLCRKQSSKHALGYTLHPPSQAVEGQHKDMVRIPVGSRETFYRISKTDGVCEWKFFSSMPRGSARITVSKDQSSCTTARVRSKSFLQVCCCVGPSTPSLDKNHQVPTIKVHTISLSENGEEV
T6 sequence (P41595 whole entry): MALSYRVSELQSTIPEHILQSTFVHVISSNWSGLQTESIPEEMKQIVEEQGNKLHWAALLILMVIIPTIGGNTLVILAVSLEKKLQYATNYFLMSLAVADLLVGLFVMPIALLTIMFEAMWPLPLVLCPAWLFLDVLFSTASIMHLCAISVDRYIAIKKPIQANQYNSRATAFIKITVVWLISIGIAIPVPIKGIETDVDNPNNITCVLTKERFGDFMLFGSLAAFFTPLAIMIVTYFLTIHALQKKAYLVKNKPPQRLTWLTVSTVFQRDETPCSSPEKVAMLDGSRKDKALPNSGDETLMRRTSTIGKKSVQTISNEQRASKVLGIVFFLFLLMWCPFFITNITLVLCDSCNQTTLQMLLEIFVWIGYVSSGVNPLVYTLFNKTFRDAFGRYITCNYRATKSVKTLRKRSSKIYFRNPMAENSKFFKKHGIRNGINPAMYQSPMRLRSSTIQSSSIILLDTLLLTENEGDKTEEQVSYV
T1 sequence (Q01959 whole entry): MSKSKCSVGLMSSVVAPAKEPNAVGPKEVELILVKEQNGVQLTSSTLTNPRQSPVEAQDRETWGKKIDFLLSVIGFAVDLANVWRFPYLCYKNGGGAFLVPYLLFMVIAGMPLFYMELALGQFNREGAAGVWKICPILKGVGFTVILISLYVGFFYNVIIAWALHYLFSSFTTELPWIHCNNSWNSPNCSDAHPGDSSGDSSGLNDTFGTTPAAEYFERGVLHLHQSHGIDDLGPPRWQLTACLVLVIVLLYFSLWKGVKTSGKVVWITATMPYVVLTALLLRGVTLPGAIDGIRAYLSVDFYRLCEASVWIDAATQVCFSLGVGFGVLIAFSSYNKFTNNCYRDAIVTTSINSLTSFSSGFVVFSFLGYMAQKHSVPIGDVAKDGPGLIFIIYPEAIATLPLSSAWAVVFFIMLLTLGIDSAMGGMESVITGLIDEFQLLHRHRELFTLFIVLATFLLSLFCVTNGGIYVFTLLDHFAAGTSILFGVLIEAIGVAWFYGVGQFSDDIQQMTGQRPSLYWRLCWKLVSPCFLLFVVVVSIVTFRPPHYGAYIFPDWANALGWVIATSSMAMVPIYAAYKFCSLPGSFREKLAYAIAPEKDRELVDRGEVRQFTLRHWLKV

Row | SMILES | IC50 [1] [nM] | half-life at 1 μM ([2]; pooled liver S9 fraction, Table S4, read-out: t1/2 mouse liver S9) [min] | half-life at 1 μM [2, 7] [min] | half-life [3] [min] | viability at 48 h, 25 × 10^−6 M ([4]; HepG2, @25 × 10^−6 M) [%] | % binding, Ca2+ channel (L, dihydropyridine site) [5] [%] | % binding, Dopamine transporter (Dopamine transporter) [%] | % binding, Na+ channel (site 2) (Na+ channel (site 2)) [%] | % binding, Norepinephrine transporter [6] [%] | % binding, α1A receptor (α1A receptor) [%] | % binding, β2 receptor (β2 receptor) | % binding, 5-HT2A (5-HT2A) [%] | % binding, 5-HT2B (5-HT2B) [%] | % binding, AR (AR) [%] | PA14 wt biofilm inhibitory effect (PA14 wt biofilm; controls of the MBEC assay, compound 4 at 20 μM) | MBEC (Tob concentration for complete biofilm eradication) (PA14 wt biofilm; PA14 wt biofilm, 24 h treatment, 4 constant at 20 × 10^−6 M where used) | viability at 48 h, 75 × 10^−6 M ([4]; HepG2, @75 × 10^−6 M) [%]
1 | FC(F)(F)c1cc(NCc2cn(-c3ccc(Oc4ccccc4)cc3)nn2)ccn1 [Compound 4] | 220 ± 50 | 19.9 ± 7.5 | 29 | 10 | 55 | 78.29 | 97.25 | 54.62 | 82.52 | 40.59 | 18.03% and 18% | 65.15 | 55.25 | -10.10 | did not show any PA14 wt biofilm inhibitory effects | – | –
2 | NC[C@H]1O[C@H](O[C@H]2[C@H](O)[C@@H](O[C@H]3O[C@H](CO)[C@@H](O)[C@H](N)[C@H]3O)[C@H](N)C[C@@H]2N)[C@H](N)C[C@@H]1O [Tobramycin, tobramycin] | – | – | – | – | – | – | – | – | – | – | – | – | – | – | – | higher than 200 µg mL^−1 | –
3 | COc1ccc(-n2cc(CNc3ccnc(C(F)(F)F)c3)nn2)cc1Cl [Compound 17] | 1600 ± 1100 | – | 11 | 3 | – | 30.36 | 28.91 | -27.90 | 8.58 | 55.42 | 85.3% and 85% | 22.02 | 73.79 | 57.04 | – | – | 68
